Patent publication US9695155B2, “Herbicidal substituted pyrimidinyloxy benzene compounds” (E. I. DU PONT DE NEMOURS AND COMPANY, priority 2013, dated 2017)

How the values were obtained:
[1] = tested on: barnyardgrass; assay: Test A preemergence; type: in vivo, Echinochloa crus-galli; conditions: for Plant response rating, Barnyardgrass: 125 g ai/ha, 0 to 100 scale where 0 is no effect and 100 is complete control; for Barnyardgrass plant response rating: 500 g ai/ha, 0 to 100 scale, 0 no effect, 100 complete control, approx. 10 days
Procedure, shortened: (§1)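 Injury scores run from 0, no effect, to 100, complete control, judged by eye against untreated plants roughly 10 days after treatment. Chemicals carried a surfactant in a non-phytotoxic solvent and went onto loam–sand soil preemergence or onto one- to two-leaf seedlings postemergence.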

[2] = tested on: large (Lg) crabgrass; assay: Test A preemergence; type: in vivo, Digitaria sanguinalis; conditions: for Plant response rating, Crabgrass, Large: 125 g ai/ha, 0 to 100 scale where 0 is no effect and 100 is complete control; for Crabgrass, Large plant response rating: 500 g ai/ha, 0 to 100 scale, 0 no effect, 100 complete control, approx. 10 days
Procedure, shortened: as §1

[3] = tested on: giant foxtail; assay: Test A preemergence; type: in vivo, Setaria faberii; conditions: for Plant response rating, Foxtail, Giant: 125 g ai/ha, 0 to 100 scale where 0 is no effect and 100 is complete control; for Foxtail, Giant plant response rating: 500 g ai/ha, 0 to 100 scale, 0 no effect, 100 complete control, approx. 10 days
Procedure, shortened: as §1

[4] = tested on: morningglory; assay: Test A preemergence; type: in vivo, Ipomoea spp.; conditions: for Plant response rating, Morningglory: 125 g ai/ha, 0 to 100 scale where 0 is no effect and 100 is complete control; for Morningglory plant response rating: 500 g ai/ha, 0 to 100 scale, 0 no effect, 100 complete control, approx. 10 days
Procedure, shortened: as §1

[5] = tested on: pigweed; assay: Test A preemergence; type: in vivo, Amaranthus retroflexus; conditions: for Plant response rating, Pigweed: 125 g ai/ha, 0 to 100 scale where 0 is no effect and 100 is complete control; for Pigweed plant response rating: 500 g ai/ha, 0 to 100 scale, 0 no effect, 100 complete control, approx. 10 days
Procedure, shortened: as §1

[6] = tested on: velvetleaf; assay: Test A preemergence; type: in vivo, Abutilon theophrasti; conditions: for Plant response rating, Velvetleaf: 125 g ai/ha, 0 to 100 scale where 0 is no effect and 100 is complete control; for Velvetleaf plant response rating: 500 g ai/ha, 0 to 100 scale, 0 no effect, 100 complete control, approx. 10 days
Procedure, shortened: as §1

[7] = tested on: wheat; assay: Test A preemergence; type: in vivo, Triticum aestivum; conditions: for Plant response rating, Wheat: 125 g ai/ha, 0 to 100 scale where 0 is no effect and 100 is complete control; for Wheat plant response rating: 500 g ai/ha, 0 to 100 scale, 0 no effect, 100 complete control, approx. 10 days
Procedure, shortened: as §1

[8] = tested on: corn; assay: Test A preemergence; type: in vivo, Zea mays; conditions: for Plant response rating, Corn: 125 g ai/ha, 0 to 100 scale where 0 is no effect and 100 is complete control; for Corn plant response rating: 500 g ai/ha, 0 to 100 scale, 0 no effect, 100 complete control, approx. 10 days
Procedure, shortened: as §1

[9] = tested on: barnyardgrass; assay: Test A postemergence; type: in vivo, Echinochloa crus-galli
Procedure, shortened: as §1

[10] = tested on: large (Lg) crabgrass; assay: Test A postemergence; type: in vivo, Digitaria sanguinalis
Procedure, shortened: as §1

[11] = tested on: giant foxtail; assay: Test A postemergence; type: in vivo, Setaria faberii
Procedure, shortened: as §1

[12] = tested on: morningglory; assay: Test A postemergence; type: in vivo, Ipomoea spp.
Procedure, shortened: as §1

[13] = tested on: pigweed; assay: Test A postemergence; type: in vivo, Amaranthus retroflexus
Procedure, shortened: as §1

[14] = tested on: velvetleaf; assay: Test A postemergence; type: in vivo, Abutilon theophrasti
Procedure, shortened: as §1

[15] = tested on: wheat; assay: Test A postemergence; type: in vivo, Triticum aestivum
Procedure, shortened: as §1

[16] = tested on: corn; assay: Test A postemergence; type: in vivo, Zea mays
Procedure, shortened: as §1

[17] = tested on: rice; assay: Test B flooded paddy test; type: in vivo, Oryza sativa; conditions: Flood, 250 g ai/ha; 0 to 100 scale where 0 is no effect and 100 is complete control
Procedure, shortened: (§2)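 Visual ratings on a 0 to 100 scale, where 100 means complete control, compared treated plants with controls after 13 to 15 days in a greenhouse. Treatment went into paddy water 3 cm deep over the soil, applied to plants at the 2-leaf stage.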

[18] = tested on: sedge, umbrella; assay: Test B flooded paddy test; type: in vivo, Cyperus difformis; conditions: Flood, 250 g ai/ha; 0 to 100 scale where 0 is no effect and 100 is complete control
Procedure, shortened: as §2

[19] = tested on: Heteranthera limosa; assay: Test B flooded paddy test; type: in vivo; conditions: Flood, 250 g ai/ha; 0 to 100 scale where 0 is no effect and 100 is complete control
Procedure, shortened: as §2

[20] = tested on: barnyardgrass; assay: Test B flooded paddy test; type: in vivo, Echinochloa crus-galli; conditions: Flood, 250 g ai/ha; 0 to 100 scale where 0 is no effect and 100 is complete control
Procedure, shortened: as §2

[21] = 125 g ai/ha, 0 to 100 scale where 0 is no effect and 100 is complete control
[22] = 500 g ai/ha, 0 to 100 scale, 0 no effect, 100 complete control

Compound: Clc1cnc(Oc2ccccc2-n2ccc(Br)n2)nc1 [Compound 21]
- Plant response rating, Barnyardgrass [1]: 20
- Barnyardgrass plant response rating [1]: 30
- Plant response rating, Crabgrass, Large [2]: 90
- Crabgrass, Large plant response rating [2]: 100
- Plant response rating, Foxtail, Giant [3]: 70
- Foxtail, Giant plant response rating [3]: 100
- Plant response rating, Morningglory [4]: 0
- Morningglory plant response rating [4]: 0
- Plant response rating, Pigweed [5]: 90
- Pigweed plant response rating [5]: 100
- Plant response rating, Velvetleaf [6]: 0
- Velvetleaf plant response rating [6]: 20
- Plant response rating, Wheat [7]: 0
- Wheat plant response rating [7]: 0
- Plant response rating, Corn [8]: 0
- Corn plant response rating [8]: 0
- Plant response rating, Barnyardgrass [9, 21]: 0
- Plant response rating, Barnyardgrass [9, 22]: 40
- Plant response rating, Crabgrass, Large [10, 21]: 20
- Plant response rating, Crabgrass, Large [10, 22]: 50
- Plant response rating, Foxtail, Giant [11, 21]: 30
- Plant response rating, Foxtail, Giant [11, 22]: 90
- Plant response rating, Morningglory [12, 21]: 40
- Plant response rating, Morningglory [12, 22]: 80
- Plant response rating, Pigweed [13, 21]: 90
- Plant response rating, Pigweed [13, 22]: 100
- Plant response rating, Velvetleaf [14, 21]: 50
- Plant response rating, Velvetleaf [14, 22]: 80
- Plant response rating, Wheat [15, 21]: 0
- Plant response rating, Wheat [15, 22]: 20
- Plant response rating, Corn [16, 21]: 0
- Plant response rating, Corn [16, 22]: 30
- Plant response rating, Rice [17]: 15
- Plant response rating, Sedge, Umbrella [18]: 70
- Plant response rating, Ducksalad [19]: 40
- Plant response rating, Barnyardgrass [20]: 25

Compound: Clc1cnc(Oc2cc(Cl)ccc2-n2cc(Br)cn2)nc1 [Compound 51]
- Plant response rating, Barnyardgrass [1]: 20
- Barnyardgrass plant response rating [1]: 30
- Plant response rating, Crabgrass, Large [2]: 40
- Crabgrass, Large plant response rating [2]: 90
- Plant response rating, Foxtail, Giant [3]: 20
- Foxtail, Giant plant response rating [3]: 80
- Plant response rating, Morningglory [4]: 0
- Morningglory plant response rating [4]: 0
- Plant response rating, Pigweed [5]: 10
- Pigweed plant response rating [5]: 80
- Plant response rating, Velvetleaf [6]: 0
- Velvetleaf plant response rating [6]: 0
- Plant response rating, Wheat [7]: 0
- Wheat plant response rating [7]: 0
- Plant response rating, Corn [8]: 0
- Corn plant response rating [8]: 0
- Plant response rating, Barnyardgrass [9, 21]: 0
- Plant response rating, Barnyardgrass [9, 22]: 10
- Plant response rating, Crabgrass, Large [10, 21]: 0
- Plant response rating, Crabgrass, Large [10, 22]: 20
- Plant response rating, Foxtail, Giant [11, 21]: 0
- Plant response rating, Foxtail, Giant [11, 22]: 10
- Plant response rating, Morningglory [12, 21]: 10
- Plant response rating, Morningglory [12, 22]: 20
- Plant response rating, Pigweed [13, 21]: 30
- Plant response rating, Pigweed [13, 22]: 70
- Plant response rating, Velvetleaf [14, 21]: 50
- Plant response rating, Velvetleaf [14, 22]: 60
- Plant response rating, Wheat [15, 21]: 0
- Plant response rating, Wheat [15, 22]: 0
- Plant response rating, Corn [16, 21]: 0
- Plant response rating, Corn [16, 22]: 20
- Plant response rating, Rice [17]: 0
- Plant response rating, Sedge, Umbrella [18]: 65
- Plant response rating, Ducksalad [19]: 40
- Plant response rating, Barnyardgrass [20]: 0
